# In US20120016009A1, “Optimized Methods For Delivery Of DSRNA Targeting The PCSK9 Gene” (priority 2008, published 2012):
# In the oligonucleotide strings, read from the 5' end, every base follows the letter of its sugar. An asterisk marks phosphorothioate; unmarked linkages are phosphodiester. Other units and linkages are bracketed, terminal groups are in braces. A string of capitals states the bases alone. d = 2'-deoxy (DNA); m = 2'-O-methyl; r = 2'-OH (RNA); {P} = phosphate; f = 2'-fluoro
# System: PCSK9 mRNA
# Test: In vitro screening of modified dsRNAs targeted to PCSK9 (Table 2b; cell type not given)
# Format: cell-based
# Conditions: 30 nM siRNA
# In short: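 siRNA at 30 nM (single-dose screen) was transfected with lipofectamine 2000 into cells seeded at 2.0×10^4/well. After 24 h, cells were lysed and PCSK9 mRNA measured by Quantigene, normalized to GAPDH (n=8). Values are % remaining PCSK9 mRNA relative to cells given an unrelated control siRNA.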
row,Substance,Remaining mRNA in % of controls at siRNA conc. of 30 nM
1,"AD-12377: modified dsRNA, SEQ ID NO:1449/1450 (chain 1 rGfCfCfUrGrGrArGfUfUfUrAfUfUfCrGrGrArAdT*dT; chain 2 mUrUmCrCrGrArAmUrArArArCrUmCmCrArGrGrCdT*dT)",88%
2,"AD-12378: modified dsRNA, SEQ ID NO:1451/1452 (chain 1 rGfCfCfUrGrGrArGfUfUfUrAfUfUfCrGrGrArAdT*dT; chain 2 rUrUrCrCrGmAmArUrAmAmArCrUrCrCrAmGmGmC*mC*mU)",6%
3,"AD-12379: modified dsRNA, SEQ ID NO:1453/1454 (chain 1 rGfCfCfUrGrGrArGfUfUfUrAfUfUfCrGrGrArAdT*dT; chain 2 rUrUrCrCrGrArArUrArArArCrUrCrCrArGrGrC*mC*mU)",6%
4,"AD-12380: modified dsRNA, SEQ ID NO:1455/1456 (chain 1 rGfCfCfUrGrGrArGfUfUfUrAfUfUfCrGrGrArAdT*dT; chain 2 {P}-mUfUmCfCmGfAmAfUmAfAmAfCmUfCmCfAmGfGmC*fC*mU)",8%
5,"AD-12381: modified dsRNA, SEQ ID NO:1457/1458 (chain 1 rGfCfCfUrGrGrArGfUfUfUrAfUfUfCrGrGrArAdT*dT; chain 2 {P}-mUfUmCfCmGfAmAfUmAfAmAfCmUfCmCfAmGfGmCdT*dT)",10%
6,"AD-12382: modified dsRNA, SEQ ID NO:1459/1460 (chain 1 rGfCfCfUrGrGrArGfUfUfUrAfUfUfCrGrGrArAdT*dT; chain 2 {P}-fUfUfCfCrGrArAfUrArArAfCfUfCfCrArGrGfCdT*dT)",7%
7,"AD-12383: modified dsRNA, SEQ ID NO:1461/1462 (chain 1 rGrCrCrUrGrGrArGrUrUrUrArUrUrCrGrGrArAdT*dT; chain 2 {P}-fUfUfCfCrGrArAfUrArArAfCfUfCfCrArGrGfCdT*dT)",7%
8,"AD-12384: modified dsRNA, SEQ ID NO:1463/1464 (chain 1 rGmCmCmUrGrGrArGmUmUmUrAmUmUmCrGrGrArAdT*dT; chain 2 {P}-fUfUfCfCrGrArAfUrArArAfCfUfCfCrArGrGfCdT*dT)",8%
9,"AD-12385: modified dsRNA, SEQ ID NO:1465/1466 (chain 1 GCCUGGNAGUUUAUUCGGAATT; chain 2 {P}-fUfUfCfCrGrArAfUrArArAfCfUfCfCrArGrGfCdT*dT; chain 1: chemistry not given here; further chemistry not fully specified)",8%
10,"AD-12386: modified dsRNA, SEQ ID NO:1467/1468 (chain 1 fGmCfCmUfGmGfAmGfUmUfUmAfUmUfCmGfGmAfA; chain 2 {P}-fUfUfCfCrGrArAfUrArArAfCfUfCfCrArGrGfCdT*dT)",11%
11,"AD-12387: modified dsRNA, SEQ ID NO:1469/1470 (chain 1 rGfCfCfUrGrGrArGrGfUfUfUrAfUfUfCrGrGrArA; chain 2 fUfUfCfCrGrArAfUrArArAfCfUfCfCrArGrGfC*fC*fU)",13%
12,"AD-12388: modified dsRNA, SEQ ID NO:1471/1472 (chain 1 rGfCfCfUrGrGrArGrGfUfUfUrAfUfUfCrGrGrArA; chain 2 {P}-mUfUmCfCmGfAmAfUmAfAmAfCmUfCmCfAmGfGmC)",19%
13,"AD-12389: modified dsRNA, SEQ ID NO:1473/1474 (chain 1 rGfCfCfUrGrGrArGrGfUfUfUrAfUfUfCrGrGrArA; chain 2 {P}-mUfUmCfCmGfAmAfUmAfAmAfCmUfCmCfAmGfGmC*fC*mU)",16%
14,"AD-12390: modified dsRNA, SEQ ID NO:1475/1476 (chain 1 rGfCfCfUrGrGrArGrGfUfUfUrAfUfUfCrGrGrArA; chain 2 rUrUrCrCrGrArArUrArArArCrUrCrCrArGrGrC*mC*mU)",17%
